Test results: ChEMBL document CHEMBL1143752, “Fatty acyl amides of endogenous tetrahydroisoquinolines are active at the recombinant human TRPV1 receptor” (Bioorg Med Chem, 2007)

What was measured:
Assay type in all cases: functional, cell-based
[1] = target: Transient receptor potential cation channel subfamily V member 1 (Homo sapiens) (UniProt Q8NER1); assay: Agonist activity at human TRPV1 expressed HEK293 cells assessed as calcium mobilization at 10 uM
[2] = target: Transient receptor potential cation channel subfamily V member 1 (Homo sapiens) (UniProt Q8NER1); assay: Agonist activity at human TRPV1 expressed HEK293 cells assessed as reduction of capsaicin-induced calcium mobilization at 1 uM; design: scale not given: the % may be the effect or the level left
[3] = target: Transient receptor potential cation channel subfamily V member 1 (Homo sapiens) (UniProt Q8NER1); assay: Agonist activity at human TRPV1 expressed HEK293 cells assessed as calcium mobilization at 12 uM

Transient receptor potential cation channel subfamily V member 1 (Homo sapiens), sequence (Q8NER1 whole entry): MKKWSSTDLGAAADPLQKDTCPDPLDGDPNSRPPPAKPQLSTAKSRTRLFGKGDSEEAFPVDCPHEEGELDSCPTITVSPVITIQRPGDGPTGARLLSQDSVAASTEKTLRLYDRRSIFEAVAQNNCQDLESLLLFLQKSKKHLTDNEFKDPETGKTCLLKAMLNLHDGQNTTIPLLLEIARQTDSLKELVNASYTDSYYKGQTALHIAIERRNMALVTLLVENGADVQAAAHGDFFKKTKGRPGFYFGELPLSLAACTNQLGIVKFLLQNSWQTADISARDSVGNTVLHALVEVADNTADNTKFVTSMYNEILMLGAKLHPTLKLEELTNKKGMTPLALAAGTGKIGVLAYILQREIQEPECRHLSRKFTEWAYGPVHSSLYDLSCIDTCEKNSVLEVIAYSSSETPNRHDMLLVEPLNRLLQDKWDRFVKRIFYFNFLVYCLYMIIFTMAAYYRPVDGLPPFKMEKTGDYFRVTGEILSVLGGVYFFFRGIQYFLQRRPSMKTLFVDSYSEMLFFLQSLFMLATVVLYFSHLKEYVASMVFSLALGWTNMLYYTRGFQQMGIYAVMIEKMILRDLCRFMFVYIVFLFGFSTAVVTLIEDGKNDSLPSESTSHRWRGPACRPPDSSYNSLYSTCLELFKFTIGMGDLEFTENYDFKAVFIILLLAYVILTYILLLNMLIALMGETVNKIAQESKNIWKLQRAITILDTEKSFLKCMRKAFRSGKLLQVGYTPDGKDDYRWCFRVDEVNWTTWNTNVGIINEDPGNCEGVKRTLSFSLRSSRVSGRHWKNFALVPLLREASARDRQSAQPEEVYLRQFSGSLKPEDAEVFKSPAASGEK

| Structure (SMILES) | Activity [1] | Activity [2] | Activity [3] |
| --- | --- | --- | --- |
| CCCCC/C=C/C/C=C/C/C=C/C/C=C/CCCC(=O)N1CCc2cc(OC)c(O)cc2C1C (configuration not stated) | 18% | 35% | – |
| CCCCC/C=C/C/C=C/C/C=C/C/C=C/CCCC(=O)N1CCc2cc(O)c(O)cc2C1C (configuration not stated) | 55% | 40% | – |

Other lines, results leading:

| Activity [1] | Activity [2] | Activity [3] | Structure (SMILES) |
| --- | --- | --- | --- |
| 25% | 45% | – | CC/C=C/C/C=C/C/C=C/C/C=C/C/C=C/C/C=C/CCC(=O)N1CCc2cc(O)c(O)cc2C1C (configuration not stated) |
| 36% | 35% | – | CCCCC/C=C/C/C=C/CCCCCCCC(=O)N1CCc2cc(O)c(O)cc2C1C (configuration not stated) |
| – | 5% | 14% | CC/C=C/C/C=C/C/C=C/C/C=C/C/C=C/C/C=C/CCC(=O)N1CCc2cc(OC)c(O)cc2C1C (configuration not stated) |
| 11% | 25% | – | CCCCC/C=C/C/C=C/CCCCCCCC(=O)N1CCc2cc(OC)c(O)cc2C1C (configuration not stated) |
